Experiments:
HA-GD2.28z CAR T cells [1] = experiment: Cytokine release assay (ELISA), CAR T cells co-cultured with GD2-overexpressing nalm6 in presence of drug; details: drug present during 24 hours co-culture
Fyn = Fyn (Homo sapiens, UniProt P06241); details: cited from earlier work
HA-GD2.28z CAR T cells [2] = experiment: Cytokine release after expansion in drug and removal of drug before tumor co-culture; format: cell-based, human
Src kinases = details: cited from earlier work
HA-GD2.28z CAR T cells [3] = experiment: Incucyte cytotoxicity after expansion in drug and removal of drug before tumor co-culture; details: expanded in drug, drug removed 18-24 hours before 72 hours co-culture
Lck = Lck (Homo sapiens, UniProt P06239); details: cited from earlier work
Lck, sequence (P06239 whole entry, species assumed): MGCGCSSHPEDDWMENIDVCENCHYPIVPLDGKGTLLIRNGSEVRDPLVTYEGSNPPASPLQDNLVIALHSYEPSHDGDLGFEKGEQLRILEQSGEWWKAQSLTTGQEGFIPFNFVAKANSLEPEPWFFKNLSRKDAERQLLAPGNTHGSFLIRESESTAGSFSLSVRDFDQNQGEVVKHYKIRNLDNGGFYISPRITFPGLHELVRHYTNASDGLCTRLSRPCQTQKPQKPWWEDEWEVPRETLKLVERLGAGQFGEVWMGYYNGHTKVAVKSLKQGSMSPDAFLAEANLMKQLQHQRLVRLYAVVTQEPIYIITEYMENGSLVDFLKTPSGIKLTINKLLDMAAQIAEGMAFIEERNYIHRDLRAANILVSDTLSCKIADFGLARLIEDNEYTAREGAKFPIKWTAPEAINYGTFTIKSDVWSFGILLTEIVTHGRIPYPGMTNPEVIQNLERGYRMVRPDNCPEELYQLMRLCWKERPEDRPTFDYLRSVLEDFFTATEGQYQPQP

CD19.28z CAR T cells = experiment: CAR T cell activation and degranulation (CD69/CD107a) on co-culture with Nalm6 tumor cells in presence of drug; details: nanomolar levels; 6 hours co-culture with tumor
[4] = target: CD19 (Homo sapiens (Human)) (UniProt P15391)
GD2.28z.FKBP CAR = experiment: Regulation of GD2.28z.FKBP CAR surface expression by shield-1 (FACS); format: cell-based, human; details: adding or subtracting shield-1 in culture medium
Source text: FIG. 1: Characterization of the GD2.28z.FKBP CAR. T cells were transduced with lentivirus encoding the GD2.28z.FKBP CAR on day 1 after activation and subsequently cultured with various concentrations of shield-1 in the growth medium. On day 7, CAR expression was quantified via FACS.

Fyn, sequence (P06241 whole entry, species assumed): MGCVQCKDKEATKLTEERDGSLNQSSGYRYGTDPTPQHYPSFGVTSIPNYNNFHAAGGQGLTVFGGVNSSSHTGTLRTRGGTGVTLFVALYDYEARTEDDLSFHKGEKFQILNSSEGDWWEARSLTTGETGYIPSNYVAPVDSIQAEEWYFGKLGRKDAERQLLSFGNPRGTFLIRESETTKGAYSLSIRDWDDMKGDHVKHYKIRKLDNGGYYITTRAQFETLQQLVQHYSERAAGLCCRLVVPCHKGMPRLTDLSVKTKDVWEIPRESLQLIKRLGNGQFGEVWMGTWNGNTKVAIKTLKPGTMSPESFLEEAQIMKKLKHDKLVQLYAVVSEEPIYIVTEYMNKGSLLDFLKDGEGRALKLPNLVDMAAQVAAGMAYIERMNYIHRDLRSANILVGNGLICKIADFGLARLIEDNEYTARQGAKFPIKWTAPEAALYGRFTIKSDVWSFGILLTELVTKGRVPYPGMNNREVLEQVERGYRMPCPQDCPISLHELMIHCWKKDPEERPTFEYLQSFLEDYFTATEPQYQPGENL

Compound: Cc1ccc(C(=O)Nc2ccc(CN3CCN(C)CC3)c(C(F)(F)F)c2)cc1C#Cc1cnc2cccnn12 [ponatinib, 3-(imidazo[1,2-b]pyridazin-3-ylethynyl)-4-methyl-N-(4-((4-methylpiperazin-1-yl)methyl)-3-(trifluoromethyl)phenyl)benzamide]
- IFNγ secretion in response to tumor (HA-GD2.28z CAR T cells [1]): potently inhibited
- IL-2 secretion in response to tumor (HA-GD2.28z CAR T cells [1]): potently inhibited
- inhibition of Fyn (Fyn): does not affect the function of Fyn or Src kinases
- reversibility of the inhibitory effect on CAR T cell function (HA-GD2.28z CAR T cells [2]): reversible
- CAR T cell cytokine secretion (HA-GD2.28z CAR T cells [2]; expanded in drug, drug removed 18-24 hours before 24 hours co-culture): dose-dependently augmented
- inhibition of Src kinases (Src kinases): does not affect the function of Fyn or Src kinases
- cytotoxic response (HA-GD2.28z CAR T cells [3]): more potent cytotoxic response
- inhibition of Lck (Lck): can bind to and inhibit Lck
- activation and degranulation (CD69 and CD107a co-expression) (CD19.28z CAR T cells): potently inhibited activation and degranulation of CAR T cells in a dose-dependent manner

Compound: CD19.28z CAR (FMC63 scFv)
- CD69 and CD107a surface expression (FACS) after 6 h co-culture [4]: 80%

Compound: CC[C@H](C(=O)N1CCCC[C@H]1C(=O)O[C@H](CCc1ccc(OC)c(OC)c1)c1cccc(OCCN2CCOCC2)c1)c1cc(OC)c(OC)c(OC)c1 [shield-1]
- CAR surface expression (GD2.28z.FKBP CAR): rapidly and dose-dependently regulated

— US20200101108A1, “METHODS OF TREATING T CELL EXHAUSTION BY INHIBITING OR MODULATING T CELL RECEPTOR SIGNALING” (THE BOARD OF TRUSTEES OF THE LE-LAND STANDFORD JUNIOR …, priority 2017, published 2020)
